The record followed here is patent EP0988300B1, “BENZO(5,6)CYCLOHEPTA(1,2-B)PYRIDINE DERIVATIVES FOR THE INHIBITION OF FARNESYL PROTEIN TRANSFERASE” (SCHERING CORPORATION, priority 1997, dated 1998).

Assay [1] has as its system Human tumor cells. The experiment in a line: Soft Agar Assay (anchorage-independent growth, colony count after MTT staining). It is filed as cell-based. The protocol:
Anchorage-independent growth is a characteristic of tumorigenic cell lines. Human tumor cells can be suspended in growth medium containing 0.3% agarose and an indicated concentration of a farnesyl transferase inhibitor. The solution can be overlayed onto growth medium solidified with 0.6% agarose containing the same concentration of farnesyl transferase inhibitor as the top layer. After the top layer is solidified, plates can be incubated for 10-16 days at 37°C under 5% CO2 to allow colony outgrowth. After incubation, the colonies can be stained by overlaying the agar with a solution of MTT (3-[4,5-dimethyl-thiazol-2-yl]-2,5-diphenyltetrazolium bromide, Thiazolyl blue) (1 mg/mL in PBS). Colonies can be counted and the IC50's can be determined.

The test system of assay [2] is COS Cell. Nature of the assay: COS Cell IC50 (Cell-Based Assay), procedures of WO 95/10516. As for the experimental part:
FPT IC50 (inhibition of farnesyl protein transferase, in vitro enzyme assay) was determined following the assay procedures described in WO 95/10516, published April 20, 1995. GGPT IC50 (inhibition of geranylgeranyl protein transferase, in vitro enzyme assay), COS Cell IC50 (Cell-Based Assay), Cell Mat Assay, and anti-tumor activity (in vivo anti-tumor studies) could be determined by the assay procedures described in WO 95/10516. The disclosure of WO 95/10516 is incorporated herein by reference thereto.

The target in assay [3] is T1, human FPT (Homo sapiens, UniProt P49354+P49356).
T1 construct: made in house; host or cells: Baculovirus/Sf-9 insect cells
The experiment in a line: FPT pM IC50 Assay (scintillation proximity assay, biotin-CVLS and (1-3H)-FPP substrates). It is filed as biochemical. Particulars: 30 pM human FPT, 176 nM FPP, 100 nM biotin-CVLS, 37° C for 1 hour. As for the experimental part:
The enzymatic reaction is performed in 50 mM Tris, 5 µM ZnCl2, 5 mM MgCl2, 0.01 % Triton X-100, 5 mM dithiolthreitol (DTT), pH 7.7 (Buffer R) at 37° C for 1 hour. The purified human FPT (> 95 % pure) was derived from a Baculovirus/Sf-9 expression system. The peptide substrate used was biotin-CVLS (SynPep Corp., Dublin, CA) and (1-^3H)-FPP (21.5 Ci/mmol) was obtained from New England Nuclear Life Science Products (Boston, MA). Compounds were initially dissolved to a final concentration of 4 mg/ml in 100 % DMSO and then to 0.25 µg/ml in 100 % DMSO. Subsequent dilutions of the compound were performed in Buffer R.
The enzymatic reaction is performed in a final volume of 100 µl. Reactions are carried out in a 96 well plate format. […] The reaction is stopped using 150 µl of the Stop Solution consisting of 1.3 mg/ml scintillation beads (strepavidin-coated scintillation proximity beads from. Amersham (Arlington Heights, IL), 250 mM EDTA, pH 8.0 and 0.5 % BSA. The radioactivity is measured after 20 minutes at room temperature.
Compounds are evaluated for their ability to inhibit the reaction by measuring the concentration-dependent percent inhibition of the reaction. […] The enzymatic activity was recorded by measuring the CPM/well using a Wallac 1204 Betaplate BS liquid scintillation counter. […]
(In a scintillation proximity assay essentially only radioactivity close to the scintillant gives light.)

Structures are written as SMILES.

On to `NC(=O)N1CCC(CC(=O)N2CCC([C@@H]3c4c(Br)cc(Cl)cc4CCc4cc(Br)c[n+]([O-])c43)CC2)CC1` [Example 2], for which the figures for the IC50 in assay [1] and in assay [2] were 0.025 to 0.183 µM and 0.009 to 0.085 µM, respectively.
The corresponding values for `O=C(Cc1cc[n+]([O-])cc1)N1CCC([C@@H]2c3c(Br)cc(Cl)cc3CCc3cc(Br)c[n+]([O-])c32)CC1` [Example 3] are 0.025 to 0.183 µM and 0.009 to 0.085 µM.
Consider `O=C(Cc1cc[n+]([O-])cc1)N1CCN(C2c3ccc(Cl)cc3CCc3cc(Br)c[n+]([O-])c32)CC1` (centres unmarked) [Example 7], for which the results for the IC50 in assay [1], in assay [3] and in assay [2] were 0.025 to 0.183 µM, 440 pM and 0.009 to 0.085 µM, respectively.
With `NC(=O)N1CCC(CC(=O)N2CCN([C@@H]3c4ccc(Cl)cc4CCc4cc(Br)c[n+]([O-])c43)CC2)CC1` [Example 10], half-maximal inhibition in assay [3] (IC50) was put at 410 pM.
